The record followed here is EP4813463A2, “TYK2 INHIBITORS AND COMPOSITIONS AND METHODS THEREOF” (Lynk Pharmaceuticals Co. Ltd., priority 2023, dated 2024).

Like-named read-outs stand apart in the source and are kept apart here. A value given as a limit tells only on which side of the number the result lay.

Test [1] concerns the target T1, TYK2-JH2 domain (Homo sapiens, UniProt P29597).
T1 construct: JAK1-JH2 domain or TYK2-JH2 domain enzyme in assay buffer
Description: Binding activity test for JH2 domain of TYK2 (Tb-antibody/tracer FRET). Summed up: (§1)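 Competitive TR-FRET binding: compounds dispensed as an 11-point 3-fold dilution series, then Tb-labelled antibody and tracer added to the JH2 protein system. Incubated at 25°C, then overnight at 4°C; FRET signal read on Envision and IC50 (nM) derived.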

Test [2] addresses T2, JAK1-JH2 domain (Homo sapiens, UniProt P23458).
T2 construct: JAK1-JH2 domain or TYK2-JH2 domain enzyme in assay buffer
Description: Binding activity test for JH2 domain of JAK1 (Tb-antibody/tracer FRET). Summed up:
as §1

The test system of test [3] is Ba/F3-FL-TYK2-P760L cells. Description: Anti-proliferative assay in engineered Ba/F3 cells (Cell-Titer Glo, 72 h). The test is classed as cell-based. To be noted: Mus musculus, concentration that causes 50% growth inhibition, read-out: Baf3-FL-T2P760L. Summed up:
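Ba/F3 cells carrying Tel-dimerization/JAK kinase fusion, IL-3-independent, in RPMI-1640 + 10% FBS; 9-point 3-fold dilutions from 20 µM (0.1% DMSO) added after 24 h, 72 h at 37 °C. Viability by Cell-Titer Glo ATP luminescence; % inhibition versus DMSO cells, blank-corrected, giving IC50.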

[4] abbreviates: JH2 domain enzyme; 60 min at 25°C, then 4°C overnight; read-out: TYK2 JH2 Binding IC50.
The mark [5] stands for this setting: ratio of JAK1 JH2 to TYK2 JH2 binding IC50.
Where [6] appears, read: JH2 domain enzyme; 60 min at 25°C, then 4°C overnight; read-out: JAK1 JH2 Binding IC50.
Setting [7] is: BaF3, 72 h, 72 h compound treatment.

T1 sequence (P29597 589-875 limits assumed): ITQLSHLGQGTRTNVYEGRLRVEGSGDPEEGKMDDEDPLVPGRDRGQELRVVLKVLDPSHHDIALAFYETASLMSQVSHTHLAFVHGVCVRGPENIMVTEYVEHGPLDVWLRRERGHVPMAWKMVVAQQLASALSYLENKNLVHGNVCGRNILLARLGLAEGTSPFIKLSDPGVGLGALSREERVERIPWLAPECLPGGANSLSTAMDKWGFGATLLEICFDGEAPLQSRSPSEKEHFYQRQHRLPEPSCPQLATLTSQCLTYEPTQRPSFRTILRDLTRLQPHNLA
T2 sequence (P23458 583-855 limits assumed): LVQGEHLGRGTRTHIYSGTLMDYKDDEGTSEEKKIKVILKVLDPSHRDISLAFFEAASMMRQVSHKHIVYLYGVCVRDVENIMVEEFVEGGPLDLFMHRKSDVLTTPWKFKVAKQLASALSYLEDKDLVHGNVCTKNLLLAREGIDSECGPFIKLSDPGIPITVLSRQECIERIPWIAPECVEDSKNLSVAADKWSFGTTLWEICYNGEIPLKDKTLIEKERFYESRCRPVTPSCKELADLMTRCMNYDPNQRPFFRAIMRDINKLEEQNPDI

Take `[2H]C([2H])([2H])NC(=O)c1cnc(NC(=O)C2CC2)cc1Nc1cnn2ccc(C(O)(C(F)(F)F)C(F)(F)F)c(OC)c12` [Example 84, 6-(Cyclopropanecarboxamido)-4-((5-(1,1,1,3,3,3-hexafluoro-2-hydroxypropan-2-yl)-4-methoxypyrazolo[1,5-a]pyridin-3-yl)amino)-N-(methyl-d3)nicotinamide]: the IC50 is 4.24 nM in test [1] (setting [4]); greater than 298 nM in test [2] (setting [6]); 634 nM in test [3] (BaF3, 72 h compound treatment). In addition, in test [1] (setting [5]), the JAK1/TYK2 selectivity is listed as greater than 70.42.

`COC(=O)c1nnc(NC(=O)C2CC2)cc1Nc1cccc(-c2ncn(C)n2)c1OC` [Example 85, Methyl 6-(cyclopropanecarboxamido)-4-((2-methoxy-3-(1-methyl-1H-1,2,4-triazol-3-yl)phenyl)amino)pyridazine-3-carboxylate]: the IC50 in test [1] (setting [4]) is 198 nM; in test [2] (setting [6]), greater than 298 nM; in test [3] (setting [7]), greater than 5000 nM. Also, the JAK1/TYK2 selectivity in test [1] (setting [5]) is reported as greater than 1.51.

Turning to `[2H]C([2H])([2H])NC(=O)c1nnc(NC(=O)C2CC2)cc1Nc1cccc(-c2ncn(C)n2)c1C(C)=O` [Example 87, 4-((2-Acetyl-3-(1-methyl-1H-1,2,4-triazol-3-yl)phenyl)amino)-6-(cyclopropanecarboxamido)-N-(methyl-d3)pyridazine-3-carboxamide], the values for the IC50 in test [1] (setting [4]), in test [2] (setting [6]) and in test [3] (setting [7]) were greater than 298 nM, greater than 298 nM and 1860 nM, respectively.

For `CCOC(=O)c1cnc(NC(=O)C2CC2)cc1Nc1cnn2ccc([C@H](OC)C(F)(F)F)c(OC)c12` [Example 88, Ethyl (S)-6-(cyclopropanecarboxamido)-4-((4-methoxy-5-(2,2,2-trifluoro-1-methoxyethyl)pyrazolo[1,5-a]pyridin-3-yl)amino)nicotinate], the figures for the IC50 in test [1] (setting [4]), in test [2] (setting [6]) and in test [3] (setting [7]) were 1.7 nM, greater than 298 nM and 719 nM, respectively. For the same compound, the JAK1/TYK2 selectivity in test [1] (setting [5]) was greater than 175.18.

As for `[2H]C([2H])([2H])NC(=O)c1nnc(NC(=O)C2CC2)cc1Nc1cccc(-c2ncn(C)n2)c1C(C)O` (stereo not drawn) [Example 89, 6-(Cyclopropanecarboxamido)-4-((2-(1-hydroxyethyl)-3-(1-methyl-1H-1,2,4-triazol-3-yl)phenyl)amino)-N-(methyl-d3)pyridazine-3-carboxamide], the IC50 was greater than 298 nM in test [1] (setting [4]), greater than 298 nM in test [2] (setting [6]) and greater than 5000 nM in test [3] (setting [7]).

Consider `COc1c([C@H](OC)C(F)(F)F)ccn2ncc(Nc3cc(NC(=O)C4CC4)ncc3C(O)C(F)(F)F)c12` (stereo partly drawn) [Example 90, N-(4-((4-methoxy-5-((S)-2,2,2-trifluoro-1-methoxyethyl)pyrazolo[1,5-a]pyridin-3-yl)amino)-5-(2,2,2-trifluoro-1-hydroxyethyl)pyridin-2-yl)cyclopropanecarboxamide], for which the IC50 in test [1] (setting [4]) is greater than 298 nM; in test [2] (setting [6]), greater than 298 nM; in test [3] (setting [7]), greater than 5000 nM.

As to `COc1c([C@H](OC)C(F)(F)F)ccn2ncc(Nc3cc(NC(=O)C4CC4)ncc3C(=O)CC#N)c12` [Example 91, (S)-N-(5-(2-cyanoacetyl)-4-((4-methoxy-5-(2,2,2-trifluoro-1-methoxyethyl)pyrazolo[1,5-a]pyridin-3-yl)amino)pyridin-2-yl)cyclopropanecarboxamide], the results for the IC50 in test [1] (setting [4]), in test [2] (setting [6]) and in test [3] (setting [7]) were 5.24 nM, greater than 298 nM and 1380 nM, respectively. Besides, the JAK1/TYK2 selectivity in test [1] (setting [5]) is recorded as greater than 56.93.

For the compound `COc1c([C@H](OC)C(F)(F)F)ccn2ncc(Nc3cc(NC(=O)C4CC4)ncc3C(O)CC#N)c12` (stereo partly drawn) [Example 92, N-(5-(2-cyano-1-hydroxyethyl)-4-((4-methoxy-5-((S)-2,2,2-trifluoro-1-methoxyethyl)pyrazolo[1,5-a]pyridin-3-yl)amino)pyridin-2-yl)cyclopropanecarboxamide], the values for the IC50 in test [1] (setting [4]), in test [2] (setting [6]) and in test [3] (setting [7]) were 26.5 nM, 79.6 nM and 878 nM, respectively. Further, the JAK1/TYK2 selectivity in test [1] (setting [5]) came to 3.00.

As to `COC(=O)c1cnc(NC(=O)C2CC2)cc1Nc1cnn2ccc(C(C)C(F)(F)F)c(OC)c12` (stereo not drawn) [Example 93, Methyl 6-(cyclopropanecarbonylamino)-4-[[4-methoxy-5-(2,2,2-trifluoro-1-methylethyl)pyrazolo[1,5-a]pyridin-3-yl]amino]pyridine-3-carboxylate], the values for the IC50 in test [1] (setting [4]), in test [2] (setting [6]) and in test [3] (setting [7]) were 1.24 nM, 63.7 nM and 577 nM, respectively. Moreover, in test [1] (setting [5]), the JAK1/TYK2 selectivity was found to be 51.39.

Consider `COCOc1cnc(NC(=O)C2CC2)cc1Nc1cnn2ccc([C@H](OC)C(F)(F)F)c(OC)c12` [Example 94, (S)-N-(4-((4-methoxy-5-(2,2,2-trifluoro-1-methoxyethyl)pyrazolo[1,5-a]pyridin-3-yl)amino)-5-(methoxymethoxy)pyridin-2-yl)cyclopropanecarboxamide], for which the IC50 in test [1] (setting [4]) was 141 nM; in test [2] (setting [6]), 193 nM; in test [3] (BaF3, 72 h compound treatment), 4630 nM. The JAK1/TYK2 selectivity in test [1] (setting [5]) came out at 1.37.

In the case of `COc1c([C@H](OC)C(F)(F)F)ccn2ncc(Nc3cc(NC(=O)C4CC4)ncc3OCC#N)c12` [Example 95, (S)-N-(5-(cyanomethoxy)-4-((4-methoxy-5-(2,2,2-trifluoro-1-methoxyethyl)pyrazolo[1,5-a]pyridin-3-yl)amino)pyridin-2-yl)cyclopropanecarboxamide], the results for the IC50 in test [1] (setting [4]), in test [2] (setting [6]) and in test [3] (setting [7]) were 68.3 nM, greater than 298 nM and greater than 5000 nM, respectively. Moreover, the JAK1/TYK2 selectivity in test [1] (setting [5]) is listed as greater than 4.37.

Consider `COC(=O)c1c(Nc2nn(C)c3ccc(C(OC)C(F)(F)F)c(OC)c23)cc(NC(=O)C2CC2)nc1N` (stereo not drawn) [Example 96, Methyl 2-amino-6-(cyclopropanecarboxamido)-4-((4-methoxy-1-methyl-5-(2,2,2-trifluoro-1-methoxyethyl)-1H-indazol-3-yl)amino) nicotinate], for which, in test [1] (setting [5]), the JAK1/TYK2 selectivity is greater than 3.19. Also, the IC50 in test [1] (read-out: TYK2 JH2 Binding IC50; JH2 domain enzyme; 60 min at 25°C, then 4°C overnight) was 93.6 nM; in test [2] (read-out: JAK1 JH2 Binding IC50; JH2 domain enzyme; 60 min at 25°C, then 4°C overnight), greater than 298 nM; in test [3] (BaF3, 72 h compound treatment), 2990 nM.

Take `COC(=O)c1cnc2cc1Nc1cc(cc(-c3ccn(C)n3)c1OC)CCOCc1cccc(n1)N2` [Example 105, Methyl 10-methoxy-11-(1-methyl-1H-pyrazol-3-yl)-16-oxa-2,4,8,22-tetraazatetracyclo[16.3.1.1^{3,7}.1^{9,13}]tetracosa-1(22),3,5,7(24),9(23),10,12,18,20-nonaene-6-carboxylate]: the IC50 in test [1] (setting [4]) was 1.21 nM; in test [2] (setting [6]) it was 232 nM; in test [3] (setting [7]) it was 66.8 nM. Besides, the JAK1/TYK2 selectivity in test [1] (setting [5]) is recorded as 191.94.

With `COC(=O)c1cnc(NC(=O)C2CC2)cc1Nc1n[nH]c2ccc(C(OC)C(F)(F)F)c(OC)c12` (stereo not drawn) [Example 113, Methyl 6-(cyclopropanecarboxamido)-4-((4-methoxy-5-(2,2,2-trifluoro-1-methoxyethyl)-1H-indazol-3-yl)amino)nicotinate], the IC50 in test [1] (setting [4]) was 0.258 nM; in test [2] (setting [6]), 74.5 nM; in test [3] (setting [7]) it was greater than 1000 nM. Also, the JAK1/TYK2 selectivity in test [1] (setting [5]) is 288.80.

For the compound `COC(=O)c1cnc(NC(=O)C2CC2)cc1Nc1nn(C)c2ccc(C(C)C(F)(F)F)c(OC)c12` (stereo not drawn) [Example 123, Methyl 6-(cyclopropanecarboxamido)-4-((4-methoxy-1-methyl-5-(1,1,1-trifluoropropan-2-yl)-1H-indazol-3-yl)amino)nicotinate], the results for the IC50 in test [1] (setting [4]), in test [2] (setting [6]) and in test [3] (setting [7]) were 0.37 nM, 174 nM and 88.3 nM, respectively. Also, the JAK1/TYK2 selectivity in test [1] (setting [5]) turned out to be 470.33.

Consider `[2H]C([2H])([2H])O[C@@H](c1ccc2c(c(Nc3cc(NC(=O)C4CC45CC5)ncc3C(=O)OC)nn2C)c1OC)C(F)(F)F` (stereo partly drawn) [Example 136, Methyl 4-((4-methoxy-1-methyl-5-((S)-2,2,2-trifluoro-1-(methoxy-d3)ethyl)-1H-indazol-3-yl)amino)-6-(spiro[2.2]pentane-1-carboxamido)nicotinate], for which the IC50 was determined as 0.21 nM in test [1] (setting [4]), 77.8 nM in test [2] (setting [6]) and 21.2 nM in test [3] (setting [7]). In addition, in test [1] (setting [5]), the JAK1/TYK2 selectivity turned out to be 370.63.

With `CCC(=O)c1cnc(NC(=O)C2CC2)cc1Nc1nn(C)c2ccc([C@H](O)C(F)(F)F)c(OC)c12` [Example 140, (S)-N-(4-((4-Methoxy-1-methyl-5-(2,2,2-trifluoro-1-hydroxyethyl)-1H-indazol-3-yl)amino)-5-propionylpyridin-2-yl)cyclopropanecarboxamide], the IC50 was found to be 0.061 nM in test [1] (setting [4]), 4.36 nM in test [2] (setting [6]) and 0.463 nM in test [3] (setting [7]). Moreover, in test [1] (setting [5]), the JAK1/TYK2 selectivity was 71.43.

On to `[2H]C([2H])([2H])C([2H])([2H])C(=O)c1cnc(NC(=O)C2CC2)cc1Nc1nn(C)c2ccc([C@H](O)C(F)(F)F)c(OC)c12` [Example 154, (S)-N-(4-((4-methoxy-1-methyl-5-(2,2,2-trifluoro-1-hydroxyethyl)-1H-indazol-3-yl)amino)-5-(propanoyl-d5)pyridin-2-yl)cyclopropanecarboxamide], for which the figures for the IC50 in test [1] (setting [4]), in test [2] (setting [6]) and in test [3] (setting [7]) were 0.066 nM, 6.88 nM and 0.455 nM, respectively. In addition, in test [1] (setting [5]), the JAK1/TYK2 selectivity was 104.27.
